Laboratory results from patent US20240417405A1, “Substituted Spiro Derivatives” (Janssen Pharmaceutica NV, priority 2021, published 2024).

Key:
KO-52 cells = assay: Proliferation assay, spheroid-like growth, KO-52 (MLL wildtype control cell line); assay type: cell-based, human; conditions: Homo sapiens, 192 h, KO-52 control cells, 8 days, confluence as measure of spheroid size; read-out: spheroid assay_OneTime KO-52 IC50
Procedure, shortened: (§1)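 IC50 derived from a variable-slope dose-response fit of percent confluence change, with DMSO-treated cells as high control and high-dose reference compound as low control. Spheroid-like growth of MOLM14 (200 cells/well) or KO-52 (300 cells/well) in ultra-low attachment plates, 8 days, 37° C, 5% CO2, DMSO normalised to 0.3%, imaged at day 8.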

MOLM14 cells = assay: Proliferation assay, spheroid-like growth, MOLM14 (MLL-AF9 rearranged); assay type: cell-based, human; conditions: Homo sapiens, MOLM-14, 192 h, 8 days, confluence as measure of spheroid size, read-out: spheroid assay_OneTime MOLM14 IC50
Procedure, shortened: as §1

[1] = biological target: T1, menin/MLL (terbium chelate-labeled menin, FITC-MBM1 peptide) (Homo sapiens, UniProt O00255, T541A); assay: Menin/MLL homogenous time-resolved fluorescence (HTRF) assay; assay type: binding; conditions: 30 min incubation
T1 construct: Menin (a.a 1-610-6xhis tag)
T1 sequence (O00255 with tags, fused parts or gaps T541A): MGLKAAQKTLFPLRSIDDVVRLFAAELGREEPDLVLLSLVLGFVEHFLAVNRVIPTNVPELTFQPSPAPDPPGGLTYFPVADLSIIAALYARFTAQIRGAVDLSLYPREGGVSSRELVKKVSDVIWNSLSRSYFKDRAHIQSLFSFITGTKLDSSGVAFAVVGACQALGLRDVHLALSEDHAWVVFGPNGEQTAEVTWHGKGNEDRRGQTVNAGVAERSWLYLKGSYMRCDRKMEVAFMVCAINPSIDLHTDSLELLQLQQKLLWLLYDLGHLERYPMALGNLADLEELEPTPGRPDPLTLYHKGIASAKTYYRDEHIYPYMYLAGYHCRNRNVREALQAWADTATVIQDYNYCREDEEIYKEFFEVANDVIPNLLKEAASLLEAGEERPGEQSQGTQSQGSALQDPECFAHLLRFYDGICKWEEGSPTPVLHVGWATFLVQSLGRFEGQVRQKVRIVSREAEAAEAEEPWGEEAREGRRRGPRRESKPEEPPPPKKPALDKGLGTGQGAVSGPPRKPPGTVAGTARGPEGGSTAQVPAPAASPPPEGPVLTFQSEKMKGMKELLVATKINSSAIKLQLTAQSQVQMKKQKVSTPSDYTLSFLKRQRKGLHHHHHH
Procedure, shortened: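 Compounds were preincubated 30 min at ambient temperature with 200 pM terbium-labeled menin (aa 1-610, His-tagged) in Tris pH 7.5 buffer with DTT and Pluronic, then 75 nM FITC-MBM1 peptide added for 15 min. HTRF ratio 520/490 nm gave % inhibition; IC50 from four-parameter fit, floor 0.1 nM.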

Row | SMILES | IC50 (KO-52 cells) [nM] | IC50 (MOLM14 cells) [nM] | IC50 [1] [nM]
1 | COC1CN([C@H]2C[C@@H]([C@H](C(C)C)N3CC4(CCN(c5ncnnc5Oc5ccc(F)cc5-c5nnccc5C5CC5)C4)C3)C2)C1 (single isomer, unassigned) [Compound 260] | 3250 | 6 | 0.1
2 | CC(C)[C@@H]([C@H]1C[C@@H](N(C)C)C1)N1CC2(CCN(c3ncnnc3Oc3ccc(F)cc3-c3nnccc3C3CC3)C2)C1 (single isomer, unassigned) [Compound 261a] | > 15000 | 19 | 0.16
3 | CC(C)[C@@H]([C@H]1C[C@H](N(C)C)C1)N1CC2(CCN(c3ncnnc3Oc3ccc(F)cc3-c3nnccc3C3CC3)C2)C1 (single isomer, unassigned) [Compound 261b] | 3070 | 83 | 0.3
4 | CC(C)[C@@H]([C@H]1C[C@@H](N2CC[C@@H](F)C2)C1)N1CC2(CCN(c3ncnnc3Oc3ccc(F)cc3-c3nnccc3C3CC3)C2)C1 (single isomer, unassigned) [Compound 262] | 1280 | 5 | 0.1
5 | COC1(C)CN([C@H]2C[C@H]([C@H](C(C)C)N3CC4(CCN(c5ncnnc5Oc5ccc(F)cc5-c5nnccc5C5CC5)C4)C3)C2)C1 (single isomer, unassigned) [Compound 264] | 14400 | 170 | 0.8
6 | CC(C)[C@H]([C@H]1C[C@@H](N2CCC3(CCCO3)C2)C1)N1CC2(CCN(c3ncnnc3Oc3ccc(F)cc3-c3nnccc3C3CC3)C2)C1 (single isomer, unassigned) [Compound 271] | > 15000 | 260 | 2.4
7 | CC(C)[C@@H]([C@H]1C[C@H](NC2CC2)C1)N1CC2(CCN(c3ncnnc3Oc3ccc(F)cc3-c3nnccc3C3CC3)C2)C1 (single isomer, unassigned) [Compound 273] | > 15000 | 110 | 0.3
8 | CC(C)[C@@H]([C@H]1C[C@@H](N2CC(OC3CC3)C2)C1)N1CC2(CCN(c3ncnnc3Oc3ccc(F)cc3-c3nnccc3C3CC3)C2)C1 (single isomer, unassigned) [Compound 274] | 3560 | 2 | 0.1
9 | CC(C)[C@@H]([C@H]1C[C@H](N2C[C@H]3COC[C@H]3C2)C1)N1CC2(CCN(c3ncnnc3Oc3ccc(F)cc3-c3cnncc3C3CC3)C2)C1 (single isomer, unassigned) [Compound 279] | 5990 | 20 | 0.1
10 | CC(C)[C@H]([C@H]1C[C@H](N2CCC3(CCO3)CC2)C1)N1CC2(CCN(c3ncnnc3Oc3ccc(F)cc3-c3cnncc3C3CC3)C2)C1 (single isomer, unassigned) [Compound 280b] | > 15000 | 740 | 2.4
11 | CO[C@H]1[C@@H]2CN([C@H]3C[C@H]([C@H](C(C)C)N4CC5(CCN(c6ncnnc6Oc6ccc(F)cc6-c6cnncc6C6CC6)C5)C4)C3)C[C@@H]21 (single isomer, unassigned) [Compound 282b] | 11500 | 380 | 0.5
12 | CC(C)[C@@H]([C@H]1C[C@@H](N2CC[C@H](S(C)(=O)=O)C2)C1)N1CC2(CCN(c3ncnnc3Oc3ccc(F)cc3-c3ncccc3C3CC3)C2)C1 (single isomer, unassigned) [Compound 285] | > 15000 | > 940 | 23.3
13 | CC(C)[C@H]([C@H]1C[C@@H](N2CC[C@H](S(C)(=O)=O)C2)C1)N1CC2(CCN(c3ncnnc3Oc3ccc(F)cc3-c3ncccc3C3CC3)C2)C1 (single isomer, unassigned) [Compound 286] | 12200 | 120 | 0.3
14 | CC(C)[C@@H]([C@H]1C[C@@H](N2CC[C@@H](S(C)(=O)=O)C2)C1)N1CC2(CCN(c3ncnnc3Oc3ccc(F)cc3-c3ncccc3C3CC3)C2)C1 (single isomer, unassigned) [Compound 287] | > 15000 | > 940 | 70.3
15 | CC(C)[C@H]([C@H]1C[C@@H](N2C[C@H]3C[C@@H]2CO3)C1)N1CC2(CCN(c3ncnnc3Oc3ccc(F)cc3-c3ncccc3C3CC3)C2)C1 (single isomer, unassigned) [Compound 288] | 12100 | 17 | 0.1
16 | CC(C)[C@@H]([C@H]1C[C@@H](N2CCC3(COC3)C2)C1)N1CC2(CCN(c3ncnnc3Oc3ccc(F)cc3-c3cccnc3C3CC3)C2)C1 (single isomer, unassigned) [Compound 289] | 310 | 2 | 0.1
17 | CC(C)[C@@H]([C@H]1C[C@@H](N2C[C@H]3C[C@@H]2CO3)C1)N1CC2(CCN(c3ncnnc3Oc3ccc(F)cc3-c3cccnc3C3CC3)C2)C1 (single isomer, unassigned) [Compound 290] | 1080 | 5 | 0.1
18 | CC(C)[C@@H]([C@H]1C[C@H](N2C[C@H]3C[C@@H]2CO3)C1)N1CC2(CCN(c3ncnnc3Oc3ccc(F)cc3-c3cccnc3C3CC3)C2)C1 (single isomer, unassigned) [Compound 291] | 1070 | 24 | 0.2
19 | CC(C)[C@H]([C@H]1C[C@@H](NC(=O)CC2COC2)C1)N1CC2(CCN(c3ncnnc3Oc3ccc(F)cc3-c3cncnc3C3CC3)C2)C1 (single isomer, unassigned) [Compound 296] | > 15000 | 10 | 0.2
20 | CC(C)[C@H]([C@H]1C[C@@H](NC(=O)CCN(C)C)C1)N1CC2(CCN(c3ncnnc3Oc3ccc(F)cc3-c3cncnc3C3CC3)C2)C1 (single isomer, unassigned) [Compound 297] | 10600 | 10 | 0.1
21 | CC(C)[C@H]([C@H]1C[C@@H](NC(=O)CC#N)C1)N1CC2(CCN(c3ncnnc3Oc3ccc(F)cc3-c3cncnc3C3CC3)C2)C1 (single isomer, unassigned) [Compound 298] | 9320 | 6 | 0.1
22 | COCC(=O)N[C@H]1C[C@@H]([C@@H](C(C)C)N2CC3(CCN(c4ncnnc4Oc4ccc(F)cc4-c4cncnc4C4CC4)C3)C2)C1 (single isomer, unassigned) [Compound 299] | 8350 | 34 | 0.2
23 | CC(C)[C@H]([C@H]1C[C@@H](NC(=O)C(C)(C)C)C1)N1CC2(CCN(c3ncnnc3Oc3ccc(F)cc3-c3cncnc3C3CC3)C2)C1 (single isomer, unassigned) [Compound 300] | 8190 | 170 | 0.3
24 | CC(C)[C@H]([C@H]1C[C@@H](NC(=O)C2(F)CC2)C1)N1CC2(CCN(c3ncnnc3Oc3ccc(F)cc3-c3cncnc3C3CC3)C2)C1 (single isomer, unassigned) [Compound 301] | 2500 | 33 | 0.2
25 | CC(C)[C@H]([C@H]1C[C@@H](NC(=O)C2CC2)C1)N1CC2(CCN(c3ncnnc3Oc3ccc(F)cc3-c3cncnc3C3CC3)C2)C1 (single isomer, unassigned) [Compound 303] | 4530 | 7 | 0.3
26 | CC(C)[C@H]([C@H]1C[C@@H](NC(=O)C2CC2)C1)N1CC2(CCN(c3ncnnc3Oc3ccc(F)cc3-c3nnccc3C3CC3)C2)C1 (single isomer, unassigned) [Compound 304] | 12100 | 32 | 0.1
27 | CC(C)[C@H]([C@H]1C[C@@H](NC(=O)C2(F)CC2)C1)N1CC2(CCN(c3ncnnc3Oc3ccc(F)cc3-c3nnccc3C3CC3)C2)C1 (single isomer, unassigned) [Compound 305] | 5780 | 17 | 0.2
28 | CC(=O)N[C@H]1C[C@@H]([C@@H](C(C)C)N2CC3(CCN(c4ncnnc4Oc4ccc(F)cc4-c4nncnc4C4CC4)C3)C2)C1 (single isomer, unassigned) [Compound 306] | 6460 | 56 | 0.3
